Experimental data taken from ChEMBL document CHEMBL1157450, “Potent and selective small-molecule human urotensin-II antagonists with improved pharmacokinetic profiles” (Bioorg Med Chem Lett, 2008).
Activity calls are given as the source filed them. No cut-off for these calls is given here.

Key:
[1] = biological target: T1, Urotensin-2 receptor (Homo sapiens, UniProt Q9UKP6); assay: Binding affinity to human urotensin-2 receptor
T1 sequence (Q9UKP6 whole entry): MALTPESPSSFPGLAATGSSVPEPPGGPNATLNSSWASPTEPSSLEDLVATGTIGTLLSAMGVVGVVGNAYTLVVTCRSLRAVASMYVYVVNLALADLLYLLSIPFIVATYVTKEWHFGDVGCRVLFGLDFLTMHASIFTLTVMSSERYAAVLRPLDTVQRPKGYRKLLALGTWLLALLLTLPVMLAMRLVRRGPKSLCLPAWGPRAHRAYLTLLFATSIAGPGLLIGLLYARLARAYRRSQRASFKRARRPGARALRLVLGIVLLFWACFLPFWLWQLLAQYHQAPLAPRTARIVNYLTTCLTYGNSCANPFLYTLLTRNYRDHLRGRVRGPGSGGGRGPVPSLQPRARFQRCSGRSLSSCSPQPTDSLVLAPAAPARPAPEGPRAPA

[2] = biological target: Cytochrome P450 3A4 (Homo sapiens, UniProt P08684); assay: Inhibition of CYP3A4; assay type: ADME
Sequence of Cytochrome P450 3A4 (P08684 whole entry): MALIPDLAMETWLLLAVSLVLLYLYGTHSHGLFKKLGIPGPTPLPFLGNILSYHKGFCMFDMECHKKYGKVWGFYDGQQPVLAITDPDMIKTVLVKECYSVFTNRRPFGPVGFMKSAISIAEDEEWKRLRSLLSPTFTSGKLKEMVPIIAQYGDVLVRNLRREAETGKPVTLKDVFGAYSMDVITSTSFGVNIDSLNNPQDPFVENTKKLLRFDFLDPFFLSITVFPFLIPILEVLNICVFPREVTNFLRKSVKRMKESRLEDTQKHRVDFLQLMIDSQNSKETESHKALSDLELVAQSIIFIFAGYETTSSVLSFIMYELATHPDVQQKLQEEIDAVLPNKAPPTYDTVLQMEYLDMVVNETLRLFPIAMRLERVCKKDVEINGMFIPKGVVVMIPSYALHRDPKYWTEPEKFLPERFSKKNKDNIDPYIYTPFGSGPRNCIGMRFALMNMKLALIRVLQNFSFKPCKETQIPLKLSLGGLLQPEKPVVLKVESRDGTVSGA

[3] = (§1) Binding affinity to batrachotoxinin-sensitive rat brain sodium channel
[4] = biological target: Kappa-type opioid receptor (Homo sapiens, UniProt P41145); assay: Agonist activity at kappa opioid receptor; assay type: functional
Sequence of Kappa-type opioid receptor (P41145 whole entry): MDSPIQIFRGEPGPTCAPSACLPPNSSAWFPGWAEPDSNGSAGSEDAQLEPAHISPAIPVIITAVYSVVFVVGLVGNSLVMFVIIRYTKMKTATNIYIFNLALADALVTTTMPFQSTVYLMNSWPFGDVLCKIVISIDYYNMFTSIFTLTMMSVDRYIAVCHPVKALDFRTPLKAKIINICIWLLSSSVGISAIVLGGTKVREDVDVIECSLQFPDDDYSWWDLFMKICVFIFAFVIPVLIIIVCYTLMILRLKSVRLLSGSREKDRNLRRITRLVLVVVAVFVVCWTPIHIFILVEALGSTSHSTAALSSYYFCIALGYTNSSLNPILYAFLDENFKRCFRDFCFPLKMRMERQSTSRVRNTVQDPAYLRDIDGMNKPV

[5] = biological target: Cytochrome P450 2D6 (Homo sapiens, UniProt P10635); assay: Inhibition of CYP2D6; assay type: ADME
Sequence of Cytochrome P450 2D6 (P10635 whole entry): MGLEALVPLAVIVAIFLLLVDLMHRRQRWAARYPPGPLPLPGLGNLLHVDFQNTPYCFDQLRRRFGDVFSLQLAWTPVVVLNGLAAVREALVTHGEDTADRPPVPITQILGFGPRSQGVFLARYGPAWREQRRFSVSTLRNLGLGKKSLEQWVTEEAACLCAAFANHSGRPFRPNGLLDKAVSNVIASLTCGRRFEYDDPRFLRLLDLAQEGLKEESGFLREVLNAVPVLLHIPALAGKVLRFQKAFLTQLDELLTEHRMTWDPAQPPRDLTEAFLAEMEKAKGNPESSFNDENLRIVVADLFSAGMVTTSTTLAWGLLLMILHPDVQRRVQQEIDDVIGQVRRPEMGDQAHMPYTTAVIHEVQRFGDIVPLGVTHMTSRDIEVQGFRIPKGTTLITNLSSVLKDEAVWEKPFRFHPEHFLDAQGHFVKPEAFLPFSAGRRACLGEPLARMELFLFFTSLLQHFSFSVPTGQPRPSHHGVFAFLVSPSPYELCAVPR

[6] = Clearance in rat at 2 mg/kg, iv and 4 mg/kg, po; assay type: ADME, organism-based; details: in vivo
[7] = Volume of distribution at steady state in rat at 2 mg/kg, iv and 4 mg/kg, po; assay type: ADME, organism-based; details: in vivo, read-out: Vdss
[8] = Cmax in rat at 2 mg/kg, iv and 4 mg/kg, po; assay type: ADME, organism-based; details: in vivo
[9] = Half life in rat at 2 mg/kg, iv and 4 mg/kg, po; assay type: ADME, organism-based; details: in vivo
[10] = Oral bioavailability in rat at 4 mg/kg; assay type: ADME, organism-based; details: in vivo
[11] = organism: Rattus norvegicus; assay: as §1
[12] = tested on: Aorta; assay: Inhibition of contraction in isolated rat aorta; assay type: functional

Structure (SMILES)	Ki [1] [nM]	IC50 [2] [nM]	Ki [3] [nM]	EC50 [4] [nM]	IC50 [5] [nM]	clearance [6] [mL/min/kg]	Vd [7] [L/kg]	Cmax [8] [ng/mL]	half-life [9] [h]	bioavailability [10] [%]	Activity [11]	Kb [12] [nM]
COCCN(CC(=O)N(C)C(CN1CCCC1)c1ccc(-c2ccc(C(N)=O)cc2)cc1)c1ccc(Cl)c(Cl)c1 (centres undefined)	3	2600	17000	100	6200	–	–	–	–	–	–	–
CN(C(=O)Cc1ccc(Cl)c(Cl)c1)[C@H](CN1CCCC1)c1ccccc1 [ICI-199,441]	4000	–	–	–	–	–	–	–	–	–	–	–
CN(CC(=O)N1CCC[C@H](c2ccccc2)[C@@H]1CN1CCCC1)c1ccc(Cl)c(Cl)c1	6	–	–	6300	–	–	–	–	–	–	–	–
CN(C(=O)CN1C(=O)COc2cc(Cl)c(Cl)cc21)C(CN1CCOCC1)c1ccc(-c2ccccc2)cc1 (racemic)	13	4600	11100	320	33000	150	23	160	2.4	–	–	–
CN(C(=O)CN1C(=O)COc2cc(Cl)c(Cl)cc21)[C@H](CN1CCOCC1)c1ccc(-c2ccccc2)cc1	630	4200	9400	40	33000	130	19	230	2.6	17	–	–
CN(CC(=O)N1CCC[C@@H](c2ccccc2)[C@H]1CN1CCCC1)c1ccc(Cl)c(Cl)c1	–	–	–	2000	–	–	–	–	–	–	–	–
CN(CC(=O)N(C)C(CN1CCCC1)c1ccc(-c2ccccc2)cc1)c1ccc(Cl)c(Cl)c1 (centres undefined)	20	4900	1200	16	5900	–	–	–	–	–	–	–
CN(CC(=O)N(C)C(CN1CCCC1)c1ccccc1)c1ccc(Cl)c(Cl)c1 (racemic)	15	3300	–	0.2	160	–	–	–	–	–	inactive	–
CNC(=O)c1cccc(-c2ccc(C(CN3CCOCC3)N(C)C(=O)Cn3c(=O)cnc4cc(Cl)c(Cl)cc43)cc2)c1 (centres undefined)	4	5000	30000	2000	33000	36	2	1100	1.5	29	–	–
CN(C(=O)CN(CC#N)c1ccc(Cl)c(Cl)c1)C(CN1CCCC1)c1ccc(-c2cccc(C(N)=O)c2)cc1 (centres undefined)	0.3	2200	22000	32	3500	100	20	340	3.4	36	–	–
CC(=O)Nc1ccc(-c2ccc(C(CN3CCOCC3)N(C)C(=O)CN3C(=O)COc4cc(C)c(C)cc43)cc2)cc1 (centres undefined)	3	6400	30000	800	30000	94	2.8	600	1.7	83	–	–
CN(C(=O)CN1C(=O)COc2cc(Cl)c(Cl)cc21)[C@@H](CN1CCOCC1)c1ccc(-c2ccccc2)cc1	16	9100	7700	800	33000	120	11	200	2.2	43	–	–
CN(CC(=O)N(C)[C@@H](CN1CCCC1)c1ccccc1)c1ccc(Cl)c(Cl)c1	13	–	2000	4	–	–	–	–	–	–	–	–
COc1cccc(-c2ccc(C(CN3CCOCC3)N(C)C(=O)CN3C(=O)COc4cc(Cl)c(Cl)cc43)cc2)c1 (centres undefined)	5	1000	22000	160	17000	140	20	290	3.4	30	–	21
CN(CC(=O)N(C)[C@H](CN1CCCC1)c1ccccc1)c1ccc(Cl)c(Cl)c1	2500	–	–	0.1	–	–	–	–	–	–	–	–
CNC(=O)c1cccc(-c2ccc(C(CN3CCOCC3)N(C)C(=O)Cn3c(=O)cnc4cc(C)c(C)cc43)cc2)c1 (centres undefined)	6	9000	30000	4000	33000	60	1.7	–	1	39	–	–
CN(CC(=O)N1CCCC(c2ccccc2)C1CN1CCCC1)c1ccc(Cl)c(Cl)c1 (racemic)	–	–	2500	–	–	–	–	–	–	–	–	–
CN(CC(=O)N(C)C(CN1CCOCC1)c1ccc(-c2ccccc2)cc1)c1ccc(Cl)c(Cl)c1 (centres undefined)	630	2100	> 300000	1600	16000	–	–	–	–	–	–	–
